{"source": "patent US12552752B2", "about": "“Atropisomers of pyridazinone derivatives as herbicides” (FMC Corporation, priority 2020, dated 2026)", "assay_type_in_all_cases": "in vivo", "key": {"[1]": {"system": "wheat (WWT, Triticum aestivum)", "assay": "Test A postemergence, wheat", "settings": "POST, 0 to 100 scale, approximately 10 d, listed as drawing 31", "text": "(§1) Seeds of plant species selected from barnyardgrass (BYG, Echinochloa crus-galli), kochia (KOC, Kochia scoparia), ragweed (common ragweed, Ambrosia elatior), ryegrass, Italian (RGI, Lolium multiflorum), foxtail, giant (FTI, Setaria faberii), foxtail, green (Setaria viridis) and pigweed (PWR, Amaranthus retroflexus) were planted into a blend of loam soil and sand and treated preemergence with a directed soil spray using test chemicals formulated in a non-phytotoxic solvent mixture which included a surfactant. At the same time, plants selected from these weed species and also wheat (WWT, Triticum aestivum), corn (CPI, Zea mays), blackgrass (BKG, Alopecurus myosuroides) and galium (GAL, catchweed bedstraw, Galium aparine) were planted in pots containing the same blend of loam soil and sand and treated with postemergence applications of test chemicals formulated in the same manner Plants ranged in height from 2 to 10 cm and were in the one- to two-leaf stage for the postemergence treatment. Treated plants and untreated controls were maintained in a greenhouse for approximately 10 d, after which time all treated plants were compared to untreated controls and visually evaluated for injury. Plant response ratings, summarized in Tables 1-4, are based on a 0 to 100 scale where 0 is no effect and 100 is complete control. A dash (−) response means no test result. The ratings are followed by a letter representing the symptomology where S is Albinism, C is Chlorosis, G is Growth Inhibition and E is Emergence."}, "[2]": {"system": "pigweed (PWR, Amaranthus retroflexus)", "assay": "Test A postemergence, pigweed", "settings": "POST, 0 to 100 scale, approximately 10 d", "text": "as §1"}, "[3]": {"system": "ragweed (common ragweed, Ambrosia elatior)", "assay": "Test A postemergence, ragweed", "settings": "POST, 0 to 100 scale, approximately 10 d", "text": "as §1"}, "[4]": {"system": "ragweed (common ragweed, Ambrosia elatior)", "assay": "Test A preemergence, ragweed", "settings": "PRE, 0 to 100 scale, approximately 10 d, listed as drawing 31", "text": "as §1"}, "[5]": {"system": "ryegrass, Italian (RGI, Lolium multiflorum)", "assay": "Test A postemergence, Italian ryegrass", "settings": "POST, 0 to 100 scale, approximately 10 d, listed as drawing 31", "text": "as §1"}, "[6]": {"system": "barnyardgrass (BYG, Echinochloa crus-galli)", "assay": "Test A postemergence, barnyardgrass", "settings": "POST, 0 to 100 scale, approximately 10 d, listed as drawing 31", "text": "as §1"}, "[7]": {"system": "galium (GAL, catchweed bedstraw, Galium aparine)", "assay": "Test A postemergence, galium", "settings": "POST, 0 to 100 scale, approximately 10 d", "text": "as §1"}, "[8]": {"system": "foxtail, giant (FTI, Setaria faberii)", "assay": "Test A preemergence, giant foxtail", "settings": "PRE, 0 to 100 scale, approximately 10 d", "text": "as §1"}, "[9]": {"system": "kochia (KOC, Kochia scoparia)", "assay": "Test A preemergence, kochia", "settings": "PRE, 0 to 100 scale, approximately 10 d", "text": "as §1"}, "[10]": {"system": "pigweed (PWR, Amaranthus retroflexus)", "assay": "Test A preemergence, pigweed", "settings": "PRE, 0 to 100 scale, approximately 10 d", "text": "as §1"}, "[11]": {"system": "barnyardgrass (BYG, Echinochloa crus-galli)", "assay": "Test A preemergence, barnyardgrass", "settings": "PRE, 0 to 100 scale, approximately 10 d", "text": "as §1"}, "[12]": {"system": "ryegrass, Italian (RGI, Lolium multiflorum)", "assay": "Test A preemergence, Italian ryegrass", "settings": "PRE, 0 to 100 scale, approximately 10 d", "text": "as §1"}, "[13]": {"system": "blackgrass (BKG, Alopecurus myosuroides)", "assay": "Test A postemergence, blackgrass", "settings": "POST, 0 to 100 scale, approximately 10 d, listed as drawing 31", "text": "as §1"}, "[14]": {"system": "foxtail, giant (FTI, Setaria faberii)", "assay": "Test A postemergence, giant foxtail", "settings": "POST, 0 to 100 scale, approximately 10 d, listed as drawing 31", "text": "as §1"}, "[15]": {"system": "kochia (KOC, Kochia scoparia)", "assay": "Test A postemergence, kochia", "settings": "POST, 0 to 100 scale, approximately 10 d", "text": "as §1"}, "corn (CPI, Zea mays)": {"system": "corn (CPI, Zea mays)", "assay": "Test A postemergence, corn", "settings": "POST, 0 to 100 scale, approximately 10 d", "text": "as §1"}, "[16]": {"settings": "16 g ai/ha, listed as drawing 31"}, "[17]": {"settings": "125 g ai/ha, listed as drawing 31"}, "[18]": {"settings": "31 g ai/ha, listed as drawing 31"}, "[19]": {"settings": "62 g ai/ha, listed as drawing 31"}}, "note": "“And” between values parts separate entries of the source, which are not always exact repeats. Equal values may be shown once.", "data": [{"smiles": "CCC(=O)Oc1c(Cl)nn(C)c(=O)c1-c1c(C)ccc2ccccc12", "note": "(racemic) [5 (Enantiomer 5A)]", "values": [{"measurement": "Plant response rating WWT", "setting": "[1]; 16 g ai/ha", "result": 0}, {"measurement": "Plant response rating WWT", "setting": "[1]; 31 g ai/ha", "result": 0}, {"measurement": "Plant response rating WWT", "setting": "[1]; 62 g ai/ha", "result": 0}, {"measurement": "Plant response rating WWT", "setting": "[1]; 125 g ai/ha", "result": 0}, {"measurement": "Plant response rating PWR", "setting": "[2]; [16]", "result": 80, "unit": "S"}, {"measurement": "Plant response rating PWR", "setting": "[2]; 31 g ai/ha", "result": 90, "unit": "S"}, {"measurement": "Plant response rating PWR", "setting": "[2]; 62 g ai/ha", "result": 90, "unit": "S"}, {"measurement": "Plant response rating PWR", "setting": "[2]; [17]", "result": 90, "unit": "S"}, {"measurement": "Plant response rating RWC", "setting": "[3]; [16]", "result": 80, "unit": "S"}, {"measurement": "Plant response rating RWC", "setting": "[3]; 31 g ai/ha", "result": 90, "unit": "S"}, {"measurement": "Plant response rating RWC", "setting": "[3]; 62 g ai/ha", "result": 90, "unit": "S"}, {"measurement": "Plant response rating RWC", "setting": "[3]; [17]", "result": 90, "unit": "S"}, {"measurement": "Plant response rating RWC", "setting": "[4]; 16 g ai/ha", "result": 0}, {"measurement": "Plant response rating RWC", "setting": "[4]; 62 g ai/ha", "result": 90, "unit": "C"}, {"measurement": "Plant response rating RWC", "setting": "[4]; 125 g ai/ha", "result": "100 C and 90 C"}, {"measurement": "Plant response rating RGI", "setting": "[5]; 16 g ai/ha", "result": 10, "unit": "S"}, {"measurement": "Plant response rating RGI", "setting": "[5]; 62 g ai/ha", "result": 50, "unit": "S"}, {"measurement": "Plant response rating BYG", "setting": "[6]; 16 g ai/ha", "result": 0}, {"measurement": "Plant response rating BYG", "setting": "[6]; 62 g ai/ha", "result": 0}, {"measurement": "Plant response rating BYG", "setting": "[6]; 125 g ai/ha", "result": "30 S and 20 S"}, {"measurement": "Plant response rating GAL", "setting": "[7]; 16 g ai/ha", "result": 90, "unit": "S"}, {"measurement": "Plant response rating GAL", "setting": "[7]; [18]", "result": 90, "unit": "S"}, {"measurement": "Plant response rating GAL", "setting": "[7]; 62 g ai/ha", "result": 100, "unit": "S"}, {"measurement": "Plant response rating GAL", "setting": "[7]; 125 g ai/ha", "result": 100, "unit": "S"}, {"measurement": "Plant response rating FTI", "setting": "[8]; 16 g ai/ha", "result": 0}, {"measurement": "Plant response rating FTI", "setting": "[8]; [19]", "result": 0}, {"measurement": "Plant response rating KOC", "setting": "[9]; 16 g ai/ha", "result": 10, "unit": "C"}, {"measurement": "Plant response rating KOC", "setting": "[9]; [19]", "result": 70, "unit": "S"}, {"measurement": "Plant response rating KOC", "setting": "[9]; [17]", "result": 80, "unit": "S"}, {"measurement": "Plant response rating PWR", "setting": "[10]; [16]", "result": 10, "unit": "C"}, {"measurement": "Plant response rating PWR", "setting": "[10]; 31 g ai/ha", "result": "60 C and 100 C"}, {"measurement": "Plant response rating PWR", "setting": "[10]; [19]", "result": 90, "unit": "C"}, {"measurement": "Plant response rating BYG", "setting": "[11]; 16 g ai/ha", "result": 0}, {"measurement": "Plant response rating BYG", "setting": "[11]; 31 g ai/ha", "result": 0}, {"measurement": "Plant response rating BYG", "setting": "[11]; 62 g ai/ha", "result": 0}, {"measurement": "Plant response rating RGI", "setting": "[12]; 16 g ai/ha", "result": 0}, {"measurement": "Plant response rating RGI", "setting": "[12]; 31 g ai/ha", "result": 0}, {"measurement": "Plant response rating RGI", "setting": "[12]; [19]", "result": 0}, {"measurement": "Plant response rating RGI", "setting": "[12]; [17]", "result": "30 S and 20 S"}, {"measurement": "Plant response rating BKG", "setting": "[13]; 16 g ai/ha", "result": 0}, {"measurement": "Plant response rating BKG", "setting": "[13]; 31 g ai/ha", "result": 0}, {"measurement": "Plant response rating BKG", "setting": "[13]; 62 g ai/ha", "result": 0}, {"measurement": "Plant response rating FTI", "setting": "[14]; 16 g ai/ha", "result": 10, "unit": "C"}, {"measurement": "Plant response rating FTI", "setting": "[14]; 31 g ai/ha", "result": 10, "unit": "S"}, {"measurement": "Plant response rating FTI", "setting": "[14]; 62 g ai/ha", "result": 10, "unit": "S"}, {"measurement": "Plant response rating FTI", "setting": "[14]; 125 g ai/ha", "result": "20 S and 30 S"}, {"measurement": "Plant response rating KOC", "setting": "[15]; [16]", "result": 70, "unit": "S"}, {"measurement": "Plant response rating KOC", "setting": "[15]; 31 g ai/ha", "result": 70, "unit": "S"}, {"measurement": "Plant response rating KOC", "setting": "[15]; [19]", "result": 80, "unit": "S"}, {"measurement": "Plant response rating KOC", "setting": "[15]; [17]", "result": "80 S and 70 S"}, {"measurement": "Plant response rating CPI", "setting": "corn (CPI, Zea mays); 16 g ai/ha", "result": 0}, {"measurement": "Plant response rating CPI", "setting": "corn (CPI, Zea mays); [18]", "result": 0}, {"measurement": "Plant response rating CPI", "setting": "corn (CPI, Zea mays); 62 g ai/ha", "result": 0}]}]}
